Earlier results as cited in US20110052625A1, “COMPOSITIONS AND METHODS FOR TREATING DIABETES USING LISOFYLLINE ANALOGS AND ISLET NEOGENESIS ASSOCIATED PEPTIDE” (DIAKINE THERAPEUTICS, INC., priority 2008, published 2011).
Ends that are not written are not given here.

Test system: overt diabetic NOD (Non-Obese Diabetic) mice
Settings: given alone; cited from earlier work

**Q.** For “GLP-1: "a 300-amino-acid (peptide) incretin synthesized in the small and large intestine by the L-type cells" (HAEGTFTSDVSSYLEGQAAKEFIAWLVKGR; ends and bridges not checked; UniProt P01275 98-127, looked up)”, which effect on hyperglycemia is on record?
**A.** Its effect on hyperglycemia is “no effect”.
